Tested on: RAW264.7 cells
Assay: Cell viability analysis (MTT), RAW264.7 cells
Format: cell-based, murine
Conditions: Raw264.7 cells, 5, 10, 20, 40 µM, 24 hours, compared to the control group (FIG. 1A)
Method: RAW264.7 murine macrophage cells were purchased from Korean Cell Line Bank (in Seoul, South Korea). A549 human alveolar basal epithelial cells were purchased from American Type Culture Collection (in ATCC, MD, USA). The cells were cultured in DMEM medium (manufactured by Corning Inc., NY, USA) containing 10% FBS (manufactured by Gibco, NY, USA) and 1X antibiotic-antimycotic solution (manufactured by ABAM, Corning Inc., NY, USA) under conditions of 37°C and 5% CO2.
To evaluate the cytotoxicity of gancaonin N, RAW264.7 cells and A549 cells were dispensed into 96-well plates (1 × 10^4 cells/well) and cultured under conditions of 37°C and 5% CO2. After the culturing, the cells were treated with gancaonin N at concentrations of 5, 10, 20, or 40 µM for 24 hours, and MTT solution (5 mg/mL) was added to each well. After adding 100 µL of dimethyl sulfoxide (DMSO, manufactured by Sigma-Aldrich, St. Louis, MO, USA), the absorbance was measured at 540 nm using a microplate reader (manufactured by Bio-Rad Hercules, CA, USA).
To examine the cytotoxicity of gancaonin N, the inventors treated Raw264.7 cells and A549 cells with gancaonin N according to the methods of Examples 1 to 4 and then measured cell viability.

Q: With `COc1ccc(-c2coc3cc(O)c(CC=C(C)C)c(O)c3c2=O)c(O)c1` [gancaonin N, 5,7-dihydroxy-3-(2-hydroxy-4-methoxyphenyl)-6-(3-methylbut-2-enyl)chromen-4-one] as the compound, how does the cell viability read?
A: did not decrease

— patent EP4205737A1, “COMPOSITION FOR PREVENTION, AMELIORATION, OR TREATMENT OF INFLAMMATORY DISEASES OR IMMUNE DISEASES COMPRISING GANCAONIN N AS ACTIVE INGREDIENT” (UNIVERSITY-INDUSTRY COOPERATION GROUP OF KYUNG HEE …, priority 2020, dated 2022)
